# Read-outs that look alike come from different tables or passages of the source.
# What was measured:
# [1] = test system: Acinetobacter calcoaceticus CMX 669; test: In vitro antibacterial activity, agar dilution MIC; type: cell-based
# Method: (§1) Representative compounds of the present invention were assayed in vitro for antibacterial activity as follows: Twelve petri dishes containing successive aqueous dilutions of the test compound mixed with 10 mL of sterilized Brain Heart Infusion (BHI) agar (Difco 0418-01-5) were prepared. Each plate was inoculated with 1:100 (or 1:10 for slow-growing strains, such as Micrococcus and Streptococcus) dilutions of up to 32 different microorganisms, using a Steers replicator block. The inoculated plates were incubated 35°-37° C. for 20 to 24 hours. In addition, a control plate, using BHI agar containing no test compound, was prepared and incubated at the beginning and end of each test.
# (§2) An additional plate containing a compound having known susceptibility patterns for the organisms being tested and belonging to the same antibiotic class as the test compound was also prepared and incubated as a further control, as well as to provide test-to-test comparability. Erythromycin A was used for this purpose.
# (§3) After incubation, each disk was read. The minimum inhibitory concentration (MIC) was defined as the lowest concentration of drug yielding no growth, a slight haze, or sparsely isolated colonies on the inoculum spot as compared to the growth control.
# [2] = test system: Enterobacter aerogenes ATCC 13048; test: In vitro antibacterial activity, agar dilution MIC; type: cell-based; details: Enterobacter aerogenes ATCC 13048, BHI agar, 35°-37° C., 20 to 24 hours
# Method: as §1, §2, §3
# [3] = test system: Enterococcus faecium ATCC 8043; test: In vitro antibacterial activity, agar dilution MIC; type: cell-based; details: Enterococcus faecium ATCC 8043, BHI agar, 35°-37° C., 20 to 24 hours
# Method: as §1, §2, §3
# Escherichia coli DC-2 = test: In vitro antibacterial activity, agar dilution MIC; type: cell-based; details: Escherichia coli DC-2, BHI agar, 35°-37° C., 20 to 24 hours
# Method: as §1, §2, §3
# Escherichia coli H560 = test: In vitro antibacterial activity, agar dilution MIC; type: cell-based; details: Escherichia coli H560, BHI agar, 35°-37° C., 20 to 24 hours
# Method: as §1, §2, §3
# Escherichia coli Juhl = test: In vitro antibacterial activity, agar dilution MIC; type: cell-based; details: Escherichia coli Juhl, BHI agar, 35°-37° C., 20 to 24 hours
# Method: as §1, §2, §3
# Escherichia coli KNK 437 = test: In vitro antibacterial activity, agar dilution MIC; type: cell-based; details: Escherichia coli KNK 437, BHI agar, 35°-37° C., 20 to 24 hours
# Method: as §1, §2, §3
# [4] = test system: Klebsiella pneumoniae ATCC 8045; test: In vitro antibacterial activity, agar dilution MIC; type: cell-based; details: Klebsiella pneumoniae ATCC 8045, BHI agar, 35°-37° C., 20 to 24 hours
# Method: as §1, §2, §3
# Micrococcus luteus 4698 = test: In vitro antibacterial activity, agar dilution MIC; type: cell-based; details: Micrococcus luteus 4698, BHI agar, 35°-37° C., 20 to 24 hours
# Method: as §1, §2, §3
# [5] = test system: Providencia stuartii CMX 640; test: In vitro antibacterial activity, agar dilution MIC; type: cell-based; details: Providencia stuartii CMX 640, BHI agar, 35°-37° C., 20 to 24 hours
# Method: as §1, §2, §3
# [6] = test system: Pseudomonas aeruginosa 2862; test: In vitro antibacterial activity, agar dilution MIC; type: cell-based; details: Pseudomonas aeruginosa 2862, BHI agar, 35°-37° C., 20 to 24 hours
# Method: as §1, §2, §3
# [7] = test system: Pseudomonas aeruginosa 5263; test: In vitro antibacterial activity, agar dilution MIC; type: cell-based; details: Pseudomonas aeruginosa 5263, BHI agar, 35°-37° C., 20 to 24 hours
# Method: as §1, §2, §3
# [8] = test system: Pseudomonas aeruginosa A5007; test: In vitro antibacterial activity, agar dilution MIC; type: cell-based; details: Pseudomonas aeruginosa A5007, BHI agar, 35°-37° C., 20 to 24 hours
# Method: as §1, §2, §3
# [9] = test system: Pseudomonas aeruginosa BMH10; test: In vitro antibacterial activity, agar dilution MIC; type: cell-based; details: Pseudomonas aeruginosa BMH10, BHI agar, 35°-37° C., 20 to 24 hours
# Method: as §1, §2, §3
# [10] = test system: Pseudomonas aeruginosa K799/WT; test: In vitro antibacterial activity, agar dilution MIC; type: cell-based; details: Pseudomonas aeruginosa K799/WT, BHI agar, 35°-37° C., 20 to 24 hours
# Method: as §1, §2, §3
# Pseudomonas cepacia 2961 = test: In vitro antibacterial activity, agar dilution MIC; type: cell-based; details: Pseudomonas cepacia 2961, BHI agar, 35°-37° C., 20 to 24 hours
# Method: as §1, §2, §3
# [11] = test system: Staphylococcus aureus 1775 Cipro R; test: In vitro antibacterial activity, agar dilution MIC; type: cell-based
# Method: as §1, §2, §3
# [12] = test system: Staphylococcus aureus A5177; test: In vitro antibacterial activity, agar dilution MIC; type: cell-based; details: Staphylococcus aureus A5177, BHI agar, 35°-37° C., 20 to 24 hours
# Method: as §1, §2, §3
# [13] = test system: Staphylococcus aureus A5278; test: In vitro antibacterial activity, agar dilution MIC; type: cell-based
# Method: as §1, §2, §3
# [14] = test system: Staphylococcus aureus ATCC 6538P; test: In vitro antibacterial activity, agar dilution MIC; type: cell-based; details: Staphylococcus aureus ATCC 6538P, BHI agar, 35°-37° C., 20 to 24 hours
# Method: as §1, §2, §3
# [15] = test system: Staphylococcus aureus CMX 553; test: In vitro antibacterial activity, agar dilution MIC; type: cell-based; details: Staphylococcus aureus CMX 553, BHI agar, 35°-37° C., 20 to 24 hours
# Method: as §1, §2, §3
# [16] = test system: Staphylococcus aureus CMX 642a; test: In vitro antibacterial activity, agar dilution MIC; type: cell-based; details: Staphylococcus aureus CMX 642a, BHI agar, 35°-37° C., 20 to 24 hours
# Method: as §1, §2, §3
# [17] = test system: Staphylococcus aureus NCTC 10649; test: In vitro antibacterial activity, agar dilution MIC; type: cell-based; details: Staphylococcus aureus NCTC 10649, BHI agar, 35°-37° C., 20 to 24 hours
# Method: as §1, §2, §3
# [18] = test system: Staphylococcus epidermidis 3519; test: In vitro antibacterial activity, agar dilution MIC; type: cell-based; details: Staphylococcus epidermidis 3519, BHI agar, 35°-37° C., 20 to 24 hours
# Method: as §1, §2, §3
# [19] = test system: Streptococcus agalactiae 508; test: In vitro antibacterial activity, agar dilution MIC; type: cell-based; details: Streptococcus agalactiae 508, BHI agar, 35°-37° C., 20 to 24 hours
# Method: as §1, §2, §3
# [20] = test system: Streptococcus bovis A5169; test: In vitro antibacterial activity, agar dilution MIC; type: cell-based
# Method: as §1, §2, §3
# [21] = test system: Streptococcus pyogenes 2548 induc; test: In vitro antibacterial activity, agar dilution MIC; type: cell-based; details: Streptococcus pyogenes 2548 induc, BHI agar, 35°-37° C., 20 to 24 hours
# Method: as §1, §2, §3
# [22] = test system: Streptococcus pyogenes 930 const; test: In vitro antibacterial activity, agar dilution MIC; type: cell-based; details: Streptococcus pyogenes 930 const, BHI agar, 35°-37° C., 20 to 24 hours
# Method: as §1, §2, §3
# [23] = test system: Streptococcus pyogenes EES61; test: In vitro antibacterial activity, agar dilution MIC; type: cell-based; details: Streptococcus pyogenes EES61, BHI agar, 35°-37° C., 20 to 24 hours
# Method: as §1, §2, §3
# Escherichia coli SS = test: microbe, parasite or virus in culture
# Method: as §1, §2, §3
# [24] = test system: Micrococcus luteus ATCC 9341; test: microbe, parasite or virus in culture
# Method: as §1, §2, §3
# [25] = test system: Pseudomonas aeruginosa K799/61; test: In vitro antibacterial activity, agar dilution MIC; type: cell-based; details: BHI agar, 35°-37° C., 20 to 24 hours
compound,measurement,setting,value
"CC[C@H]1OC(=O)[C@H](C)[C@@H](O[C@H]2C[C@](C)(F)[C@@H](OC)[C@H](C)O2)[C@H](C)[C@@H](O[C@@H]2O[C@H](C)C[C@H](N(C)C)[C@H]2O)[C@@]2(C)CC(C)=C(O2)[C@H](C)[C@H]2OC(=O)O[C@@]21C [Example 17, (3""S)-8,9-Anhydro-11-O,12-O-carbonyl-3""-fluoro-3""-desmethoxy-4""-O-methylerythromycin A-6,9-hemiketal]",MIC,"[1]; Acinetobacter calcoaceticus, CMX669",25 µg/mL
same,MIC,"[2]; Klebsiella aerogenes, ATCC13048, read-out: MIC",> 100 µg/mL
same,MIC,"[3]; ATCC8043, read-out: MIC",0.39 µg/mL
same,MIC,"Escherichia coli DC-2; DC2, read-out: MIC",> 100 µg/mL
same,MIC,Escherichia coli H560; read-out: MIC,> 100 µg/mL
same,MIC,Escherichia coli Juhl; read-out: MIC,> 100 µg/mL
same,MIC,"Escherichia coli KNK 437; KNK437, read-out: MIC",> 100 µg/mL
same,MIC,"[4]; ATCC8045, read-out: MIC",> 100 µg/mL
same,MIC,Micrococcus luteus 4698; read-out: MIC,1.56 µg/mL
same,MIC,"[5]; CMX640, read-out: MIC",> 100 µg/mL
same,MIC,[6]; read-out: MIC,> 100 µg/mL
same,MIC,[7]; read-out: MIC,> 100 µg/mL
same,MIC,[8]; read-out: MIC,> 100 µg/mL
same,MIC,[9]; read-out: MIC,> 100 µg/mL
same,MIC,[10]; read-out: MIC,> 100 µg/mL
same,MIC,"Pseudomonas cepacia 2961; Burkholderia cepacia, read-out: MIC",> 100 µg/mL
same,MIC,"[11]; Staphylococcus aureus, 1775CIPROR",25 µg/mL
same,MIC,[12]; read-out: MIC,12.5 µg/mL
same,MIC,"[13]; Staphylococcus aureus, A5278",25 µg/mL
same,MIC,"[14]; ATCC6538P, read-out: MIC",1.56 µg/mL
same,MIC,"[15]; CMX553, read-out: MIC",1.56 µg/mL
same,MIC,"[16]; CMX642A, read-out: MIC",1.56 µg/mL
same,MIC,"[17]; NCTC10649, read-out: MIC",1.56 µg/mL
same,MIC,[18]; read-out: MIC,1.56 µg/mL
same,MIC,[19]; read-out: MIC,0.2 µg/mL
same,MIC,"[20]; Streptococcus equinus, A5169",0.1 µg/mL
same,MIC,[21]; read-out: MIC,1.56 µg/mL
same,MIC,[22]; read-out: MIC,12.5 µg/mL
same,MIC,[23]; read-out: MIC,0.2 µg/mL
same,MIC,Escherichia coli SS; Escherichia coli,3.1 µg/mL
same,MIC,"[24]; Micrococcus luteus, ATCC9341",0.1 µg/mL
same,MIC,[25]; read-out: MIC,50 µg/mL
"(3""S)-11-O,12-O-carbonyl-3""-fluoro-3""-desmethoxy-4""-O-methylerythromycin A [Example 15]",MIC,"[1]; Acinetobacter calcoaceticus CMX 669, BHI agar, 35°-37° C., 20 to 24 hours",100 µg/mL
same,MIC,[2],> 100 µg/mL
same,MIC,[3],0.05 µg/mL
same,MIC,Escherichia coli DC-2,100 µg/mL
same,MIC,Escherichia coli H560,50 µg/mL
same,MIC,Escherichia coli Juhl,100 µg/mL
same,MIC,Escherichia coli KNK 437,100 µg/mL
same,MIC,[4],100 µg/mL
same,MIC,Micrococcus luteus 4698,0.1 µg/mL
same,MIC,[5],> 100 µg/mL
same,MIC,[6],> 100 µg/mL
same,MIC,[7],> 100 µg/mL
same,MIC,[8],> 100 µg/mL
same,MIC,[9],> 100 µg/mL
same,MIC,[10],100 µg/mL
same,MIC,Pseudomonas cepacia 2961,25 µg/mL
same,MIC,"[11]; Staphylococcus aureus 1775 Cipro R, BHI agar, 35°-37° C., 20 to 24 hours",> 100 µg/mL
same,MIC,[12],6.2 µg/mL
same,MIC,"[13]; Staphylococcus aureus A5278, BHI agar, 35°-37° C., 20 to 24 hours",> 100 µg/mL
same,MIC,[14],0.39 µg/mL
same,MIC,[15],0.39 µg/mL
same,MIC,[16],0.39 µg/mL
same,MIC,[17],0.39 µg/mL
same,MIC,[18],0.39 µg/mL
same,MIC,[19],0.05 µg/mL
same,MIC,"[20]; Streptococcus bovis A5169, BHI agar, 35°-37° C., 20 to 24 hours",0.01 µg/mL
same,MIC,[21],0.39 µg/mL
same,MIC,[22],> 100 µg/mL
same,MIC,[23],0.05 µg/mL
same,MIC,"Escherichia coli SS; Escherichia coli SS, BHI agar, 35°-37° C., 20 to 24 hours",0.2 µg/mL
same,MIC,"[24]; Micrococcus luteus ATCC 9341, BHI agar, 35°-37° C., 20 to 24 hours",0.01 µg/mL
same,MIC,[25],3.1 µg/mL

# Source: patent US5393743A, “Erythromycin derivatives” (Abbott Laboratories, priority 1993, dated 1995)
